Literature values as cited in patent publication US9708371B2, “Treatments for gastrointestinal disorders” (Ironwood Pharmaceuticals, Inc., priority 2011, dated 2017).
Bridge positions count the residues as written; N and C are the ends. Peptide text beside a SMILES is read from it.

Settings: therapeutic dose levels

## C[C@@H]1NC(=O)[C@@H]2CCCN2C(=O)[C@H](CC(N)=O)NC(=O)[C@@H]2CSSC[C@H](N)C(=O)N[C@H]3CSSC[C@H](NC1=O)C(=O)N[C@@H]([C@@H](C)O)C(=O)NCC(=O)N[C@H](C(=O)N[C@@H](Cc1ccc(O)cc1)C(=O)O)CSSC[C@H](NC(=O)[C@H](Cc1ccc(O)cc1)NC(=O)[C@H](CCC(=O)O)NC3=O)C(=O)N2 [Linaclotide, Cys Cys Glu Tyr Cys Cys Asn Pro Ala Cys Thr Gly Cys Tyr] (H-CCEYCCNPACTGCY-OH; disulfide 1-6, 2-10, 5-13 (inferred); N-terminus and C-terminus assumed)
  levels seen systemically after oral administration: no detectable levels
